Assay results taken from patent US5128244A, “Assay for dioxins” (Wisconsin Alumni Research Foundation, priority 1989, dated 1992).

Tests used:
Ah receptor [1] = target: T1, Ah receptor (Mus musculus, UniProt P30561); assay: Competitive binding assay of TCDD against [125I] radioligand for Ah receptor; design: species or system C57BL/6J mice
T1 construct: full-length receptor (C57BL/6J carries Ahr b-1 allele)
T1 sequence (P30561 10-848): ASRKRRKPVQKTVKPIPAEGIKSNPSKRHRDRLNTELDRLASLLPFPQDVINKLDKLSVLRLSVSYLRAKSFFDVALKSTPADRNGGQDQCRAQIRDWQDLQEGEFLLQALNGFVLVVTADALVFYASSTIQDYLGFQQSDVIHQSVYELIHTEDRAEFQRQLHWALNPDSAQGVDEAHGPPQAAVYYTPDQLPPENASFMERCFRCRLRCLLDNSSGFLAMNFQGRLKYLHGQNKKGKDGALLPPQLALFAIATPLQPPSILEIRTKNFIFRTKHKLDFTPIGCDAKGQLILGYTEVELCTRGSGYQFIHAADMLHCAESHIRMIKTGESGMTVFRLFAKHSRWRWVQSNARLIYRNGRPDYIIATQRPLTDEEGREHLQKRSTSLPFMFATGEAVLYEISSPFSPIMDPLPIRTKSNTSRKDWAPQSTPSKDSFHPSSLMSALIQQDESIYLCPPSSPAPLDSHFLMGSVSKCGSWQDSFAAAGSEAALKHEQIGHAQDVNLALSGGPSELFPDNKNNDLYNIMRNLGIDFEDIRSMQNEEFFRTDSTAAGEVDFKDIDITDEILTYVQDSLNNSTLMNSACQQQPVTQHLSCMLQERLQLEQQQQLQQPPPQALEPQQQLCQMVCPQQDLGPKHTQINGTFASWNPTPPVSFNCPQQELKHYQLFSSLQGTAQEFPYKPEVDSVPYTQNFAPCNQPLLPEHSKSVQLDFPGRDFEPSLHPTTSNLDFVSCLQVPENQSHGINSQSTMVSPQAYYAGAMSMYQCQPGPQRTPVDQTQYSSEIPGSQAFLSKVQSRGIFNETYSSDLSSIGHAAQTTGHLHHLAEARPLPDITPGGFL
Description: C57BL/6J mice were purchased from The Jackson Laboratory, Bar Harbor, Me., and bred in our laboratory. See generally A. Poland et al., 261 J. Biol. Chem. 6352-65 (May 15, 1986) (not prior art). One-hundred adult male and female mice were killed by cervical dislocation, their livers removed, rinsed with ice cold KCl (150 mM), homogenized in 9 vol of MSSENG buffer, and centrifuged at 10,000 xg for 20 min at 4° C. The post-mitochondrial supernatant was carefully removed to avoid contamination by the surface lipid layer, and subjected to centrifugation at 105,000 x g. The supernatant (approx. 10 mg protein/ml) was separated from surface lipids and the microsomal pellet, and stored at -80° C. until processed further.
The frozen cytosolic fraction was thawed, and placed in an ice bath with slow stirring. A saturated solution of ammonium sulfate in MEN buffer was added to the cytosolic preparation, to a final concentration of 40%, over a period of 30 min, and stirred for an additional 30 min. The solution was centrifuged at 10,000 x g for 20 min, the supernatant fraction removed, slowly brought to an ammonium sulfate concentration of 55%, stirred for an additional 30 min, centrifuged at 10,000xg, and the supernatant discarded. The 40-55% ammonium sulfate precipitate was resuspended in 55% ammonium sulfate in MN, and aliquots equivalent to 0.5 g wet weight of liver (15 mg protein) were placed in 12×75 mm borosilicate tubes (VWR Scientific, San Francisco, Calif.), and spun at 5000xg. […]
The assay was terminated by the addition of a 0.5 ml of suspension of charcoal/gelatin (3%/0.3%) in MN buffer with vigorous stirring on a vortex mixer for 3 sec., and incubated for 10 min at 4° C. […] A one ml aliquot of the supernatant fraction of each tube was transferred to 12×75 […] polypropylene tubes (VWR Scientific, San Francisco, CA), and the Ah bound radioligand quantified in a MINAXI Series-5000 gamma scintillation counter (United Technologies/Packard Instrument Co., Downer Grove, Ill.). […]

Ah receptor [2] = target: T1, Ah receptor; assay: Radioligand stock solution aged 120 days, tested in the Ah receptor binding assay; design: species or system C57BL/6J mice; conditions: stock solution of radioligand 120 days after its synthesis
Excerpt: [^125 I]decays to tellurium with a half-life of 60 days. Thus, radiodecay could produce unlabelled 2,3-dibromodibenzo-p-dioxin in the radioligand stock solution. We tested whether radioligand decay products might compete for receptor binding and diminish radioligand binding.

SMILES	minimal detectable amount of TCDD (Ah receptor [1]; 1 ml assay) [pg]	minimal detectable concentration of TCDD (Ah receptor [1]; 1 ml assay, statistical analysis of standard curve of specifically bound radioligand v. log concentration of competing TCDD) [pM]	minimal detectable amount of TCDD (Ah receptor [1]; total assay volume reduced to 0.25 ml) [pg]	deviation in the quality control parameters compared to freshly prepared radioligand (Ah receptor [2])
Clc1cc2c(cc1Cl)Oc1cc(Cl)c(Cl)cc1O2 [TCDD, 2,3,7,8-tetrachloro-dibenzo-p-dioxin]	3.2	10	0.8	–
Brc1cc2c(cc1Br)Oc1cc([125I])ccc1O2 [radioligand, [^125 I]-2-iodo-7,8-dibromo-dibenzo-p-dioxin]	–	–	–	no significant deviation
